Assay results as given in patent US6063782A, “Pyrrolopyridazine derivatives” (Sankyo Company, Limited, priority 1994, dated 2000).

What was measured:
gastric acid secretion = assay: Gastric acid secretion activity test using pyloric ligation in rats (Shay rat method); format: in vivo; conditions: male SD rats, 20 mg/kg injected into the duodenal region, 4 hours, result given in words only
Experimental: Gastric acid secretion activity test using pyloric ligation in rats (Shay rat method)
Pyloric ligation was conducted based on the method of Shay et al. [Gastroenterology, 5, 43 (1945)]. Male rats of SD strain were fasted for 24 hours; their abdomens were sectioned during anesthesia under ether. The duodenal and pyloric regions were exposed and the latter was ligated. A solution of a test compound (10 mg/ml) prepared by use of 1.5w parts of dimethylacetamide, 68.5% parts of polyethyleneglycol (PEG-400) and 30% parts of physiological saline solution, was injected into the duodenal region for the dose to be 20 mg/kg by use of a 1-ml syringe and an injection needle (26G). After injection of the test compound, the abdominal region was sutured. The animals were allowed to a stand for 4 hours without feeding food and water and then sacrified with carbon dioxide gas. The stomach was excised and gastric juice was gathered. The gastric juice sample was centrifuged (4° C., 2500 rpm, 15 minutes). The amount of the supernatant was measured to be as the gastric secretion. The acidity of the gastric juice was determined by the amount (ml) of 0.01 N sodium hydroxide solution required for titration of 0.1 ml of the supernatant to pH 7.0 by use of-an auto-titrating apparatus. The value of gastric acid secretion was calculated from the value of gastric secretion and the acidity of gastric juice. The inhibiting rate was obtained from the values of gastric acid secretion of the control group and of the administered group.

[1] = system: Helicobacter pylori strains 9470, 9472 and 9474; assay: Antibacterial activity against Helicobacter pylori; format: cell-based; conditions: strains 9470, 9472 and 9474, 37° C., 3 days, slightly aerobic; result given in words only
Experimental: Antibacterial activity against Helicobacter pylori The antibacterial activity of the compounds of the present invention were evaluated by measuring the minimum inhibitory concentration values (MIC) of the present compounds against Helicobacter pylori strains 9470, 9472 and 9474. These strains of Helicobacter pylori were incubated for 4 days on a plate medium. The medium was prepared by dissolving brain heart infusion agar (Product of DIFCO) in a defined amount of distilled water, by sterilization in an autoclave, injecting horse blood (Product of Nihon Seibutsu Zairyo Co.) into each plate for the medium to contain 7% of the blood and by solidifying. Under slightly aerobic conditions, Helicobacter pylori cultivated at 37° C. for 4 days was suspended in a physiological saline solution for its inocular size to be about 10^8 CFU/ml. The suspension was diluted 100 times, and about 10 μl of the diluted suspension was inoculated on a medium for MIC determination. The medium for MIC determination used had the same compounds as those for preculture. […] In a similar way to the preculture, Helicobacter pylori was cultivated at 37° C. for 3 days under slightly aerobic conditions. […] The minimum concentration which gave no bacterial growth was regarded as MIC of the compound of the present invention.

Compound | minimum inhibitory concentration (MIC) against Helicobacter pylori [1] | inhibiting rate of gastric acid secretion (gastric acid secretion)
C/C=C/Cn1c(CC)c(C)c2cnnc(OCc3ccc(F)cc3)c21 [Example 33, 1-(2-Butenyl)-2-ethyl-7-(4-fluorobenzyloxy)-3-methylpyrrolo[2,3-d]pyridazine] | – | excellent activity
C#CCn1c(C)c(C)c2cnnc(OCc3ccccc3)c21 [Example 42, 7-Benzyloxy-2,3-dimethyl-1-(2-propynyl)pyrrolo[2,3-d]pyridazine] | – | excellent activity
CC=CCn1c(C)c(CC)c2cnnc(OCc3ccc(F)cc3)c21 [Example 56, 1-(2-Butenyl)-3-ethyl-7-(4-fluorobenzyloxy)-2-methylpyrrolo[2,3-d]pyridazine] | excellent antibacterial activity | –
CC=CCn1c(C)c(C)c2cnnc(CCc3ccc(F)cc3)c21 [Example 62, 1-(2-Butenyl)-7-(4-fluorophenethyl)-2,3-dimethylpyrrolo[2,3-d]pyridazine] | – | excellent activity
CC=CCn1c(C)c(C)c2cnnc(SCc3ccc(F)cc3F)c21 [Example 51, 1-(2-Butenyl)-7-(2,4-difluorobenzylthio)-2,3-dimethylpyrrolo[2,3-d]pyridazine] | excellent antibacterial activity | –
Cc1c(C)n(CC2CCCCC2)c2c(OCc3ccc(F)cc3)nncc12 [Example 37, 1-Cyclohexylmethyl-7-(4-fluorobenzyloxy)-2,3-dimethylpyrrolo[2,3-d]pyridazine] | – | excellent activity
CC=CCn1c(C)c(C)c2cnnc(SCc3ccc(F)cc3)c21 [Example 50, 1-(2-Butenyl)-7-(4-fluorobenylthio)-2,3-dimethylpyrrolo[2,3-d]pyridazine] | excellent antibacterial activity | –
C=C(C)Cn1c(C)c(C)c2cnnc(OCc3ccc(F)cc3)c21 [Example 26, 7-(4-Fluorobenzyloxy)-2,3-dimethyl-1-(2-methyl-2-propenyl)pyrrolo[2,3-d]pyridazine] | – | excellent activity
C/C=C\Cn1c(C)c(C)c2cnnc(OCc3ccc(F)cc3)c21 [Example 29, 1-(2-Butenyl)-7-(4-fluorobenzyloxy)-2,3-dimethylpyrrolo[2,3-d]pyridazine] | excellent antibacterial activity | –
C=CCn1c(C)c(C)c2cnnc(SCc3ccc(F)cc3)c21 [Example 34, 7-(4-Fluorobenzylthio)-2,3-dimethyl-1--(2-propenyl)ipyrrolo[2,3-d]pyridazine] | excellent antibacterial activity | –
CC=CCn1c(C)c(C)c2cnnc(OCc3cccnc3)c21 [Example 32, 1-(2-Butenyl)-2,3-dimethyl-7-(3-pyridylmethyloxy)pyrrolo[2,3-d]pyridazine] | – | excellent activity
CC=CCn1c(C)c(C)c2cnnc(SCc3c(F)cccc3Cl)c21 [Example 52, 1-(2-Butenyl)-7-(2-chloro-6-fluorobenzylthio)-2,3-dimethylpyrrolo[2,3-d]pyridazine] | excellent antibacterial activity | –
CC=CCn1c(C)c(C)c2cnnc(OCc3c(F)cccc3Cl)c21 [Example 40, 1-(2-Butenyl)-7-(2-chloro-6-fluorobenzyloxy)-2,3-dimethylpyrrolo[2,3-d]pyridazine] | – | excellent activity
Cc1c(C)n(CC=C(Cl)Cl)c2c(OCc3ccccc3)nncc12 [Example 41, 7-Benzyloxy-1-(3,3-dichloro-2-propenyl)-2,3-dimethylpyrrolo[2,3-d]pyridazine] | – | excellent activity
Cc1c(C)n(CC2CC2C)c2c(CCc3ccccc3)nncc12 (stereo not drawn) [Example 68, 2,3-Dimethyl-1-(2-methylcyclopropylmethyl)-7-phenethylpyrrolo[2,3-d]pyridazine] | – | excellent activity

Second part, led by results:

minimum inhibitory concentration (MIC) against Helicobacter pylori [1] | Compound | inhibiting rate of gastric acid secretion (gastric acid secretion)
excellent antibacterial activity | Cc1c(C)n(C/C=C/c2ccccc2)c2c(OCc3ccc(F)cc3)nncc12 [Example 24, 7-(4-Fluorobenzyloxy)-2,3-dimethyl-1-(3-phenyl-2-propenyl)pyrrolo[2,3-d]pyridazine] | –
excellent antibacterial activity | CC(C)=CCn1c(C)c(C)c2cnnc(OCc3ccccc3)c21 [Example 2, 7-Benzyloxy-2,3-dimethyl-1-(3-methyl-2-butenyl)pyrrolo[2,3-d]pyridazine] | –
excellent antibacterial activity | Cc1c(C)n(CCF)c2c(OCc3ccccc3)nncc12 [Example 18, 7-Benzyloxy-1-(2-fluoroethyl)-2,3-dimethylpyrrolo[2,3-d]pyridazine] | –
excellent antibacterial activity | Cc1c(C)n(CC(F)F)c2c(OCc3ccccc3)nncc12 [Example 20, 7-Benzyloxy-1-(2,2-difluoroethyl)-2,3-dimethylpyrrolo[2,3-d]pyridazine] | –
excellent antibacterial activity | Cc1c(C)n(C2CC2)c2c(OCc3ccccc3)nncc12 [Example 16, 7-Benzyloxy-1-cyclopropyl-2,3-dimethylpyrrolo[2,3-d]pyridazine] | excellent activity
excellent antibacterial activity | C=CCn1c(C)c(C)c2cnnc(OCc3ccc(C(F)(F)F)cc3)c21 [Example 25, 2,3-Dimethyl-1-(2-propenyl)-7-(4-trifluoromethylbenzyloxy)pyrrolo[2,3-d]pyridazine] | –
excellent antibacterial activity | Cc1c(C)n(C/C=C/c2ccccc2)c2c(OCc3ccccc3)nncc12 [Example 6, 7-Benzyloxy-2,3-dimethyl-1-(3-phenyl-2-propenyl)pyrrolo[2,3-d]pyridazine] | –
excellent antibacterial activity | Cc1c(C)n(CCCF)c2c(OCc3ccccc3)nncc12 [Example 19, 7-Benzyloxy-1-(3-fluoropropyl)-2,3-dimethylpyrrolo[2,3-d]pyridazine] | –
excellent antibacterial activity | CC=CCn1c(C)c(C)c2cnnc(OCc3ccccc3)c21 [Example 5, 7-Benzyloxy-1-(2-butenyl)-2,3-dimethylpyrrolo[2,3-d]pyridazine] | excellent activity
excellent antibacterial activity | C=CCn1c(C)c(CC)c2cnnc(OCc3ccccc3)c21 [Example 27, 7-Benzyloxy-3-ethyl-2-methyl-1-(2-propenyl)-6pyrrolo[2,3-d]pyridazine] | –
excellent antibacterial activity | Cc1c(C)n(CC(F)(F)F)c2c(OCc3ccccc3)nncc12 [Example 15, 7-Benzyloxy-2,3-dimethyl-1-(2,2,2-trifluoroethyl)pyrrolo[2,3-d]pyridazine] | –
excellent antibacterial activity | C=CCn1c(C)c(C)c2cnnc(OCc3ccccc3F)c21 [Example 10, 7-(2-Fluorobenzyloxy)-2,3-dimethyl-1-(2-propenyl)nvrrolo[2,3-d]pyridazine] | –
excellent antibacterial activity | C=Cn1c(C)c(C)c2cnnc(OCc3ccccc3)c21 [Example 13, 7-Benzyloxy-2,3-dimethyl-1-vinylpyrrolo[2,3-d]pyridazine] | –
excellent antibacterial activity | Cc1c(C)n(C2CCCCC2)c2c(OCc3ccccc3)nncc12 [Example 23, 7-Benzyloxy-1-cyclohexyl-2,3-dimethylpyrrolo[2,3-d]pyridazine] | –
excellent antibacterial activity | C=CCn1c(C)c(C)c2cnnc(OCc3cccc(F)c3)c21 [Example 8, 7-(3-Fluorobenzyloxy)-2,3-dimethyl-1-(2-propenyl)pyrrolo[2,3-d]pyridazine] | –
excellent antibacterial activity | C=C=Cn1c(C)c(C)c2cnnc(OCc3ccccc3)c21 [Example 45, 7-Benzyloxy-2,3-dimethyl-1-(propane-1,2-dienyl)pyrrolo[2,3-d]pyridazine] | –
